Measurements taken from the NIST ThermoML archive (doi:10.1021/je300044x).
Numbers after ± are expanded uncertainties.

How the values were obtained:
[1] = Molar enthalpy of transition or fusion; settings: DSC

| Normal melting temperature (Crystal 1, DTA) | Triple point temperature (Crystal 2, DTA) | Molar enthalpy of transition or fusion ([1]; Crystal 1) | Molar enthalpy of transition or fusion ([1]; Crystal 2) | SMILES | Normal melting temperature (Metastable crystal, visual observation) |
| --- | --- | --- | --- | --- | --- |
| – | – | – | – | CCn1cc[n+](C)c1.O=S(=O)([N-]S(=O)(=O)C(F)(F)F)C(F)(F)F | -16.24 ± 2 °C |
| 188.27 ± 1.1 °C | 420.36 ± 1.1 K | 6.72 ± 0.194 kcal/mol | 0.39 ± 0.0359 kcal/mol | NC(=O)c1cnccn1 [pyrazinecarboxamide] | – |
